We go through one compound from paper PMC3561402, “Signaling Pathways of ESE-16, an Antimitotic and Anticarbonic Anhydrase Estradiol Analog, in Breast Cancer Cells” (PLoS ONE, 2013).

The test concerns the target T1, carbonic anhydrase II (wild-type CAII) (Homo sapiens, UniProt P00918).
T1 construct: gene CA2
As to the kind of experiment: […] exchange, membrane inlet mass spectrometry; Henderson tight-binding analysis. In kind it is biochemical.

Compound `CCc1cc2c(cc1OS(N)(=O)=O)CC[C@@H]1[C@@H]2CC[C@]2(C)C=CC[C@@H]12` [ESE-16, 2-ethyl-3-O-sulphamoyl-estra-1,3,5(10)16-tetraene] showed an inhibitory constant (Ki) of 0.569 ± 0.061 µM.
